In series [1] the test system is light-chain immunoglobulin-secreting human myeloma cells. Description: Doxorubicin-induced apoptotic cell death of myeloma cells. Type of series: cell-based. How it is done:
The light-chain immunoglobulin-secreting human myeloma cells were cultured in RPMI 1640 medium supplemented with 10% non-inactivated fetal bovine serum and 0.05 mM 2-mercaptoethanol. The effects of PACAP38, and [Ala^16,17,D-Lys^38]PACAP38 on apoptotic cell death was assessed by the quantitative determination of cytoplasmic histone-associated DNA-fragmentation (mono- and oligonucleosomes) after exposure to doxorubicin for 48 hours. Each value represents the mean plus/minus the standard deviation of three determinations. **p<0.01 and *p<0.05 compared to the doxorubicin-treated (control) cells.
At the lowest dose tested (10^−8 M), both peptides reduced the doxorubicin-induced apoptotic cell death of these malignant plasma cells.

Series [2] concerns HK-2 human kidney cells. Description: Doxorubicin-induced apoptotic cell death of human renal proximal tubule epithelial cells. It counts as cell-based. Particulars: HK-2 cells, peptide added to the medium, FIG. 11. How it is done:
The HK-2 human kidney cells were cultured in Keratinocyte-Serum Free Medium supplemented with recombinant epidermal growth factor and bovine pituitary extract. […] Each value represents the mean plus/minus the standard deviation of four determinations in three replicate experiments. **p<0.01 and *p<0.05 compared to the doxorubicin-treated (control) cells.
At the highest dose tested (10^−6 M), all three peptides reduced the apoptotic cell death of these epithelial cells by more than 60%.

Series [3] concerns PC-12 rat pheochromocytoma cells. Description: Cisplatin-induced apoptotic cell death of pheochromocytoma cells. The following applies: PC-12 cells. It counts as cell-based. The protocol: The PC-12 rat pheochromocytoma cells were cultured in F-12K medium supplemented with 15% horse serum and 2.5% fetal bovine serum. The dose-dependent inhibitory effects of PACAP38 and the PACAP38 analogs on apoptotic cell death were assessed by the quantitative determination of cytoplasmic histone-associated DNA-fragmentation (mono- and oligonucleosomes) after exposure to cisplatin for 24 hours. Each value represents the mean plus/minus the standard error of four determinations. **p<0.01 and *p<0.05 compared to the cisplatin-treated (control) cells.

Series [4] has as its system Four-vessel occlusion in the rat. The following applies: cited from earlier work.
For series [5], the system named is Middle cerebral artery occlusion (MCAO) in the rat. The following applies: cited from earlier work; for reduction of the infarct volume: 48 hours after start.
In series [6] the test system is Jurkat human T-lymphocyte leukemia cells. The experiment in a line: Etoposide-induced apoptotic cell death of leukemia cells. It counts as cell-based. How it is done: The Jurkat human T-lymphocyte leukemia cells were cultured in RPMI 1640 medium supplemented with 10% non-inactivated fetal bovine serum. The effects of PACAP27 and PACAP38 on apoptotic cell death was assessed by the quantitative determination of cytoplasmic histone-associated DNA-fragmentation (mono- and oligonucleosomes) after exposure to etoposide for 48 hours. Each value represents the mean plus/minus the standard deviation of three determinations. **p<0.01 and *p<0.05 compared to the etoposide-treated (control) cells.

The test system of series [7] is light-chain immunoglobulin-secreting human myeloma cells. Description: Carmustine-induced apoptotic cell death of myeloma cells. Type of series: cell-based. How it is done: The light-chain immunoglobulin-secreting human myeloma cells were cultured in RPMI 1640 medium supplemented with 10% non-inactivated fetal bovine serum and 0.05 mM 2-mercaptoethanol. The effects of PACAP38, and [Ala^22]PACAP38 on apoptotic cell death was assessed by the quantitative determination of cytoplasmic histone-associated DNA-fragmentation (mono- and oligonucleosomes) after exposure to carmustine for 48 hours. Each value represents the mean plus/minus the standard deviation of three determinations. **p<0.01 and *p<0.05 compared to the carmustine-treated (control) cells.

Series [8] relates to human erythroleukemia cells. The experiment in a line: Thalidomide-induced apoptotic cell death of erythroleukemia cells. It counts as cell-based. How it is done:
The human myeloid leukemia cells were cultured in RPMI 1640 medium supplemented with 10% non-inactivated fetal bovine serum. The effects of PACAP38, [D-Ser^2]PACAP38 and VIP on apoptotic cell death was assessed by the quantitative determination of cytoplasmic histone-associated DNA-fragmentation (mono- and oligonucleosomes) after exposure to thalidomide for 48 hours. Each value represents the mean plus/minus the standard deviation of four determinations. **p<0.01 and *p<0.05 compared to the thalidomide-treated (control) cells.

The test system of series [9] is HK-2 human kidney cells. Description: Cisplatin-induced apoptotic cell death of human renal proximal tubule epithelial cells (histone-associated DNA fragmentation). It counts as cell-based. Particulars: HK-2 cells. The protocol:
The HK-2 human kidney cells were cultured in Keratinocyte-Serum Free Medium supplemented with recombinant epidermal growth factor and bovine pituitary extract. The dose-dependent inhibitory effect of PACAP38 on apoptotic cell death was assessed by the quantitative determination of cytoplasmic histone-associated DNA-fragmentation (mono- and oligonucleosomes) after exposure to cisplatin for 24 hours. Each value represents the mean plus/minus the standard error of four determinations in three replicate experiments. **p<0.01 compared to the cisplatin-treated (control) cells.
The HK-2 human kidney cells were cultured in Keratinocyte-Serum Free Medium supplemented with recombinant epidermal growth factor and bovine pituitary extract. The dose-dependent inhibitory effect of PACAP38 on apoptotic cell death was assessed by the quantitative determination of cytoplasmic histone-associated DNA-fragmentation (mono- and oligonucleosomes) after exposure to cisplatin for 24 hours. Each value represents the mean plus/minus the standard deviation of four determinations in three different experiments. **p<0.01 and *p<0.05 compared to the cisplatin-treated (control) cells.

Series [10] relates to HK-2 human kidney cells. The experiment in a line: Cell-based adhesion assay: binding of cisplatin-treated renal cells to extracellular matrix components. Particulars: HK-2 cells, 50 μM cisplatin, FIG. 5. The source says:
The wells of a 96-well plate were coated with […] fibronectin, collagen I or collagen IV. […] PACAP38 partially reversed the decrease in binding to fibronectin and collagen IV in the cells exposed to cisplatin. Each value represents the mean plus/minus the standard error of four determinations. **p<0.01 compared to the corresponding cisplatin-treated (control) cells.

Here are results for 1 substance from patent US20110268789A1, “USE OF PITUITARY ADENYLATE CYCLASE-ACTIVATING POLYPEPTIDE (PACAP) AND PACAP ANALOGS AS ADJUNCTIVE TREATMENTS WITH ANTICANCER AGENTS” (priority 2008, published 2011).

Where two headings read alike, the source gives them in different places.

For PACAP38, in series [1] (doxorubicin 48 hours, FIG. 16), the “effect on doxorubicin-induced apoptotic cell death (dose-response)” value is “biphasic dose-response effect”. For the same substance, the “effect on doxorubicin-induced apoptotic cell death” value in series [1] (highest dose tested (10^−6 M)) was “significantly enhanced”; in [1] (lowest dose tested (10^−8 M)), “reduced”. Also, in the series on HK-2 human kidney cells [2], the “reduction in doxorubicin-induced apoptotic cell death” value is on record as “significant dose-dependent reduction”. The “reduction in cisplatin-induced apoptotic cell death” value in series [3] (cisplatin 24 hours, FIG. 13) is on record as “dose-dependent reduction”; in the series with HK-2 human kidney cells [9] (cisplatin 24 hours, peptide added to the medium, FIG. 3), “significant dose-dependent reduction”. Also, the “reduction of cisplatin-induced apoptotic cell death” value in [3] (highest dose tested (10^−6 M)) was “significantly reduced”. In series [4] (16 pmol/hr or 160 pmol/hr i.v. for 6 days beginning 24 hours after occlusion), the “reduction in the number of CA1 pyramidal cells at day 7 post-occlusion” value is “significantly reversed”. In series [4] (16 pmol/hr or 160 pmol/hr i.v.), the “side-effects during 6 days continuous infusion” value is “no obvious side-effects”. Also, the results for the “reduction of the infarct volume” value in series [5] (160 pmol/hr i.v. infusion beginning 4 hours after start of MCAO), in series [5] (160 pmol/hr i.v. infusion beginning 8 hours after start of MCAO) and in [5] (160 pmol/hr i.v. infusion beginning 12 hours after start of MCAO) were “approximately 51%”, about 22% and about 12%, respectively. The “effect of continuous intravenous infusion on plasma glucose levels, blood gases, blood pressure” value in [5] (160 pmol/hr i.v.) was “did not appear to alter plasma glucose levels, blood gases or blood pressure”. For the same substance, the “reduction in etoposide-induced apoptotic cell death” value in [6] (Jurkat cells, etoposide 48 hours, FIG. 15) was “small reduction”. Further, the “significance of the reduction of etoposide-induced apoptotic cell death” value in series [6] (Jurkat cells, highest dose tested 10^−6 M) is reported as “only significant at the highest dose”. Moreover, in series [6] (versus cisplatin (FIG. 3), doxorubicin (FIG. 11), bleomycin (FIG. 12)), the “potency as cytoprotectant of kidney and lung epithelial cells relative to protection of T-lymphocyte leukemia cells against etoposide” value is “about 100 fold”. Moreover, the “relative potency as enhancer of carmustine-induced apoptotic cell death” value in series [7] was “more potent than [Ala^22]PACAP38”. Moreover, the “effect on carmustine-induced apoptotic cell death” value in series [7] (carmustine 48 hours, FIG. 17) was “enhancement”; in [7] (highest dose tested (10^−6 M)) it was “significantly enhanced”. In addition, the “lowest dose with significant enhancement of thalidomide-induced apoptotic cell death” value in series [8] is on record as 10^−8 M. For the same substance, the “effect on thalidomide-induced apoptotic cell death” value in [8] (thalidomide 48 hours, FIG. 20) is “dose-dependent enhancement”. The “relative effectiveness as protectants against cisplatin-induced apoptotic cell death” value with HK-2 human kidney cells [9] (comparable concentrations, FIG. 4) is listed as “similarly effective”. Further, the “prevention of apoptotic cell death caused by cisplatin” value with HK-2 human kidney cells [9] (highest dose tested) is “almost completely prevented”. Besides, the “reversal of inhibitory effect of cisplatin on binding to fibronectin-based or collagen IV-based matrix” value in the series with HK-2 human kidney cells [10] is reported as “significantly reversed”.
